{"source": "patent US5762910A", "about": "“Liposoluble compounds useful as magnetic resonance imaging agents” (ImaRx Pharmaceutical Corp., priority 1996, dated 1998)", "key": {"[1]": {"experiment": "In vitro relaxivity of liposomal contrast agents at 0.5 Tesla (Table I)", "type": "physicochemical", "settings": "0.5 Tesla (21.3 MHz); liposomes EPC/cholesterol 8:2, 33 mole percent compound", "protocol": "Liposomal contrast agents of the invention, prepared in accordance with Example 8, were serially diluted from a stock solution of known concentration. Diluted concentrations for testing were held constant at 0.5 mM, 0.25 mM, 0.125 mM, 0.100 mM, 0.05 mM, and 0.025 mM, respectively. Samples were scanned on a Toshiba MRT 50A 0.5 Tesla (21.3 MHz) clincal magnet equipped with a QD head coil (Toshiba MRI scanner, Nasu, Japan). Signal intensities for resulting scans were then statistically analyzed using a computer curve fitting program (Fit All, MTR Software, version 1.1). Resulting relaxivities were regressed against the concentration to determine R1 (1/T1 mmol sec^-1) and R2 ([…]). The results were compared with similar scans for other compounds not within the scope of the present invention. Specifically, as a comparison for the contrast agents of the invention, 0.5 Tesla scans were made of Gd-DTPA (no liposome), Mn-EDTA-MEA (no liposome), Mn-EDTA-MEA (incorporated into a liposome of 0.1 micron), and phosphate buffered saline (PBS).\nIn all liposome examples in Table I, the lipid concentration is 200 mM, and all liposomes are composed of 80 mole percent egg phosphatidyl choline (EPC) and 20 mole percent cholesterol. […]"}, "[2]": {"experiment": "In vitro relaxivity of Mn-EDTA-DDP and Mn-EDTA-DDP albumin suspensions at 0.5 Tesla (Table III)", "type": "physicochemical", "settings": "0.5 Tesla (21.3MHz), in mM^-1 s^-1", "protocol": "Mn-EDTA-DDP and Mn-EDTA-DDP albumin suspensions (contrast agents within the scope of the invention) were prepared in accordance with Example 11, except that water instead of saline was used. The samples scanned by NMR using a 0.5 Tesla (21.3MHz) Toshiba MRI scanner (Nasu, Japan) to determine relaxivity. The results were compared with similar scans for other compounds not within the scope of the invention. Specifically, scans were made of contrast agent of the invention, Mn-EDTA-DDP, Mn-EDTA-DDP albumin suspensions (both heated to 55° C., and unheated), and compared with scans of PBS, Gd-DTPA, MnCl2, and MnCl2 albumin suspensions. MnCl2, and the MnCl2 liposomes were prepared in accordance with Example 15."}, "[3]": {"settings": "background; compared with gadolinium alone; cited from earlier work"}, "[4]": {"test_system": "Outbred ICR mice", "experiment": "In vivo toxicity, LD50 in mice after intravenous tail vein injection (Table V)", "design": "species or system mouse", "settings": "i.v. tail vein", "protocol": "Outbred ICR mice (Harlan Sprague Dawley, Indianapolis, Ind.) were injected intraveneously via a tail vein injection with various doses of Mn-EDTA-DDP and Mn-EDTA-DDP liposomes, prepared in accordance with Example 8, and the LD50 measured. As a comparison, the mice were also injected with MnCl2 and MnCl2 liposomes.\nIn Table V, MnCl2 liposomes denotes manganese chloride salt entrapped in 100 nm diameter liposomes comprised of 8:2 EPC/cholesterol. Also, Mn-EDTA-DDP in liposomes refers to 100 nm liposomes comprised of 1:3Mn-EDTA-DDP to lipid (where the lipid is 8:2 EPC/cholesterol)."}, "[5]": {"test_system": "rats bearing hepatic tumors (C5 clonal derivative epithelioid neoplasms)", "experiment": "In vivo efficacy, MR imaging at 1.5 Tesla of rats bearing hepatic tumors (Tables IV A-D)", "design": "species or system rat", "settings": "i.v.; for Tumor Contrast To Noise: 30 minute delay", "protocol": "Mn-EDTA-ODP and Mn-EDTA-DDP liposomes of both 30 nm and 100 nm (contrast agents within the scope of the invention) were prepared in accordance with Example 8, injected intraveneously via a tail vein injection into rats bearing hepatic tumors (C5 clonal derivative epithelioid neoplasms), and the rats imaged using a 1.5 Tesla GE Signa Clinical Magnet equipped with a linear knee coil. Animals were anesthesized with a 10:1 mixture v/v of ketamine (100 mg/ml) and acepoumozine (10 mg/ml) prior to imaging. Imaging parameters were: TR=250; TE=12; Matrix=256×192; NEX=8; FOV 16 cm; Slice Thickness=3 mm; Slice Gap=1 mm. Images were taken in the coronal plane, mapped off an axial scout image. For comparison, rats were also injected with MnCl2, and MnCl2 liposomes, prepared in accordance with Example 15.\nIn Table IV A, imaging was preformed with one rat at each dose. S/N denotes signal to noise ratio.\nIn Table IV B, the \"*\" denotes a 30 minutes delay in imaging. Also, NA denotes that imaging was not done at the indicated dosage. The liposomes employed were composed of 80 mole percent egg phosphatidylcholine (EPC) and 20 mole percent cholesterol. With the Mn-EDTA-DDP liposomes, there was a 1:3 molar ratio of Mn-EDTA-DDP to lipid in the liposomes (lipid was 8:2 EPC/cholesterol). The data was obtained from one rat imaged at each dose.\nIn Table IV C, NT denotes that no tumors were detected, and NA denotes that imaging not done at the indicated dosage.\nIn Table IV D, NT denotes that no tumors were detected, and NA denotes that imaging not done at the indicated dosage."}}}
{"compound": "O=C([O-])CN(CCN(CC(=O)[O-])CC(=O)[O-])CCN(CC(=O)[O-])CC(=O)[O-].[Gd+3]", "note": "[Gd-DTPA]", "values": [{"measurement": "R1 (1/T1), relaxivity", "setting": "[1]", "value": "4.68 ± 0.279 per millimole of paramagnetic"}, {"measurement": "R2 (1/T2), relaxivity", "setting": "[1]", "value": "5.17 ± 0.148 per millimole of paramagnetic"}, {"measurement": "R1, relaxivity", "setting": "[2]; 1.0 mM", "value": "4.58 ± 0.143"}, {"measurement": "R2, relaxivity", "setting": "[2]; 1.0 mM", "value": "5.41 ± 0.65"}, {"measurement": "toxicity (in words)", "setting": "[3]", "value": "much less toxicity"}]}
{"compound": "Manganese N,N'-Bis-(Carboxy-Decylamidomethyl-N-2,3-Dihydroxypropyl)-Ethylenediamine- N,N'-Diacetate [Mn-EDTA-DDP]", "values": [{"measurement": "Interpolated LD50s", "setting": "[4]", "value": 240, "unit": "µmol/kg"}, {"measurement": "R1, relaxivity", "setting": "[2]; with and without albumin", "value": "9.83 ± 0.332"}, {"measurement": "R2, relaxivity", "setting": "[2]; with and without albumin", "value": "15.20 ± 0.393"}]}
{"compound": "[Cl][Mn][Cl]", "note": "[MnCl2, manganese chloride]", "values": [{"measurement": "Interpolated LD50s", "setting": "[4]", "value": 250, "unit": "µmol/kg"}, {"measurement": "Tumor Contrast To Noise", "setting": "[5]; 0.5 μM/kg", "value": 12}, {"measurement": "Percent Liver Enhancement", "setting": "[5]; 0.5 μM/kg, delayed post (30 minutes delay)", "value": 0, "unit": "%"}, {"measurement": "Contrast to Noise", "setting": "[5]; 0.5 μM/kg, post", "value": 19}, {"measurement": "Percent Liver Enhancement", "setting": "[5]; 0.5 μM/kg, post", "value": 0, "unit": "%"}, {"measurement": "Contrast to Noise", "setting": "[5]; 0.5 μM/kg, pre", "value": 28}, {"measurement": "Tumor Contrast To Noise", "setting": "[5]; 1.0 μM/kg", "value": 16}, {"measurement": "Percent Liver Enhancement", "setting": "[5]; 1.0 μM/kg, delayed post (30 minutes delay)", "value": 0, "unit": "%"}, {"measurement": "Contrast to Noise", "setting": "[5]; 1.0 μM/kg, post", "value": 23}, {"measurement": "Percent Liver Enhancement", "setting": "[5]; 1.0 μM/kg, post", "value": 0, "unit": "%"}, {"measurement": "Contrast to Noise", "setting": "[5]; 1.0 μM/kg, pre", "value": 37.5}, {"measurement": "Tumor Contrast To Noise", "setting": "[5]; 2.5 μM/kg", "value": 35.9}, {"measurement": "Percent Liver Enhancement", "setting": "[5]; 2.5 μM/kg, delayed post (30 minutes delay)", "value": 29.4, "unit": "%"}, {"measurement": "Contrast to Noise", "setting": "[5]; 2.5 μM/kg, post", "value": 17.9}, {"measurement": "Percent Liver Enhancement", "setting": "[5]; 2.5 μM/kg, post", "value": 25, "unit": "%"}, {"measurement": "Contrast to Noise", "setting": "[5]; 2.5 μM/kg, pre", "value": 13.1}, {"measurement": "Tumor Contrast To Noise", "setting": "[5]; 5.0 μM/kg", "value": 31.3}, {"measurement": "Percent Liver Enhancement", "setting": "[5]; 5.0 μM/kg, delayed post (30 minutes delay)", "value": 21, "unit": "%"}, {"measurement": "Contrast to Noise", "setting": "[5]; 5.0 μM/kg, post", "value": 28.3}, {"measurement": "Percent Liver Enhancement", "setting": "[5]; 5.0 μM/kg, post", "value": 43, "unit": "%"}, {"measurement": "Contrast to Noise", "setting": "[5]; 5.0 μM/kg, pre", "value": 21.3}, {"measurement": "Tumor Contrast To Noise", "setting": "[5]; 10.0 μM/kg", "value": 29.6}, {"measurement": "Percent Liver Enhancement", "setting": "[5]; 10 μM/kg, delayed post (30 minutes delay)", "value": 61, "unit": "%"}, {"measurement": "Percent Liver Enhancement", "setting": "[5]; 10 μM/kg, post", "value": 81, "unit": "%"}, {"measurement": "Contrast to Noise", "setting": "[5]; 10.0 μM/kg, post", "value": 29.2}, {"measurement": "Contrast to Noise", "setting": "[5]; 10.0 μM/kg, pre", "value": 9.3}, {"measurement": "R1, relaxivity", "setting": "[2]; with and without albumin", "value": "8.73 ± 0.928"}, {"measurement": "R2, relaxivity", "setting": "[2]; with and without albumin", "value": "39.45 ± 0.515"}]}
